Measured values: patent publication US11286263B2, “Macrocyclic fluorine substituted indole derivatives” (The Broad Institute, Inc., priority 2017, dated 2022)
Where a name gives a salt, the structure may show the parent alone. Read-outs that look alike come from different tables or passages of the source.

Columns and labels:
SUDHL10 = assay: Antiproliferation assay SUDHL10 (Assay 7); assay type: cell-based; conditions: Homo sapiens, SU-DHL10; SUDHL10 cells, 72 h, CellTiter-Glo; median; read-out: IC50 Antiproli SUDHL10 [M] (median)
Procedure: (§1) Assessment of the Anti-Proliferative Effect of Compounds in Different Cell Lines
(§2) The impact of compounds on the proliferation of different cell lines was assessed using the CellTiter-Glo® Luminescent Cell Viability reagent from Promega (G7573).
(§3) In parallel, cells were plated in a reference (day 0) plate for time zero determination.
(§4) Rim wells were excluded. The cells were incubated for 72 h hours in a humidified incubator at 37° C. The day 0 plate was measured by adding 30 μL/well of CTG solution (CellTiter-Glo® Luminescent Cell Viability reagent, Promega G7573) to time zero wells in the reference plate followed by a 10 minutes incubation and luminescence reading at 0.1 ms. using the PHERAstar FS microplate reader (BMG Labtech).
(§5) After 72 h incubation, the treated plates were measured in the same way as the day 0 plate mentioned above.

MCL1 protein = MCL1 protein (Homo sapiens (Human), UniProt Q07820); assay: PIxEL: protein-protein interaction in permeabilized cells by ELISA (Assay 5); assay type: cell-based; conditions: permeabilized RKO cells, biotin-BIM BH3 peptide, median
Procedure: Assay 5 PI×EL: Protein-Protein Interaction in Permeabilized Cells by ELISA
Most MCL1 protein molecules are localized at the mitochondria outer membrane and sequester pro-apoptotic proteins through binding of their BCL2 homology domain 3 (BH3 domain). MEB buffer (150 mM mannitol, 10 mM HEPES pH 7.5, 50 mM KCl, 20 μM EDTA, 20 μM EGTA, 5 mM potassium succinate, 0.1% protease-free BSA (SIGMA) with low dose digitonin (0.002%) permeabilizes plasma membrane while leaves live mitochondria, where MCL1 maintains its native localization and conformation. Unlike biophysical assays (e.g. TR-FRET) that use truncated recombinant MCL1 protein, this assay uses full length endogenous MCL1 protein at mitochondria outer membrane. It measures the interaction between MCL1 protein and biotinylated BIM BH3 peptide. Compounds can compete with BIM BH3 peptide to bind to MCL1 protein. This serum free assay measures the affinity between MCL1 protein and compound in permeabilized cells, therefore it is not affected by serum binding and cell permeability, and can measure the intrinsic compound affinity.
On day 1, RKO colon cancer cell line cells were plated at 0.8 million cells/ml, 100 μl/well in 96-well flat bottom TC plates (Corning). MCL1 antibody (Santa Cruz sc-12756) were diluted at 200 fold (final concentration 1 μg/ml) in carbonate buffer (Thermo Fisher Scientific, pH 9.6), and 50 μl of diluted antibody was added to each well of high bind ELISA plates (SARSTEDT). Each plate was tapped to make sure liquid covering entire bottom of wells and incubate at 37° C. overnight.
On the second day, MCL1 antibody was washed from ELISA plate. 250 μl Odyssey® Blocking Buffer (PBS) (Li-Cor) was added to each well, incubated at room temperature for at least 1 hour, then washed once with 250 μl 1×PBST. Plates with RKO cells were gently washed once with 100 μl/well PBS, once with 100 μl/well MEB buffer without digitonin, then 100 μl of MEB buffer with 0.002% digitonin was gently added to each well. Compounds were added with HP Tecan compound dispenser in 3-fold dilution series, highest dose 30 μM, 10-dose per compound in quadruplicates. Biotin-BIM peptide (synthesized by 21st Century) was added with HP Tecan compound dispenser at 0.2 μM immediately after the addition of compounds. Plates were rocked for 1 hour at room temperature. Then MEB buffer was aspirated and 50 μl of CHAPS buffer (50 mM Tris-Cl, pH 7.4, 150 mM NaCl, 1% CHAPS, 1 mM EDTA, 1 mM EGTA, complete protease inhibitors (Roche), PhosSTOP (Roche)) was added to each well. Plates were rocked for 1 hour at 4° C., then 45 μl cell lysate from each well were transferred to ELISA plates coated with MCL1 antibody. Plates were incubated overnight in the cold room with rocking.
On the third day, ELISA plates were washed once with 250 μl 1×PBST. Streptavidin-poly-HRP (Thermo Fisher Scientific) was diluted to 20 ng/ml in Odyssey blocking buffer plus 0.05% Triton-100, and 100 μl was added to each well of the ELISA plate. Plates were incubated at room temperature for 1 hour with rocking, then washed with 100 μL 1×PBST for 3 times. Each SuperSignal ELISA Femto Maximum Sensitivity substrate was added to a 50-ml tube and mixed, then 100 μl of mixed substrate was added to each well. Plates were shaken for 1 minute then luminescence was measured by Envision plate reader […]. Signal of each well were normalized by no-compound control and no-cell control. IC50 was calculated using Graphic Pad PRISM software.

HMC-1-8 = assay: Antiproliferation assay HMC-1-8 (Assay 7); assay type: cell-based
Procedure: as §1, §2, §3, §4, §5

MCL-1 = MCL-1 (Homo sapiens (Human), UniProt Q07820, K194A/K197A/R201A); assay: Protein-compound interaction assay (SPR assay, Assay 8); assay type: binding; conditions: immobilized MBP-MCL-1, 25° C., geometric mean
Text: Assay 8 Protein-Compound Interaction Assay (SPR Assay)
The ability of the compounds described in this invention to bind to MCL-1 may be determined using surface plasmon resonance (SPR). This allows for the quantification of binding in terms of the equilibrium dissociation constant (KD [M]), as well as association and dissociation rate constants (kon [1/M 1/s] and koff [1/s], respectively). The measurements may be performed using Biacore® T200 or Biacore® S200 instruments (GE Healthcare).
For SPR measurements, recombinant MCL-1 (amino acids 173-321, N-terminal fused to Maltose Binding Protein (MBP) (SEQ ID 1) purchased from Beryllium (Bedford, Mass., USA)) was immobilized using standard amine coupling (Johnsson B et al, Anal Biochem. 1991 Nov. 1; 198(2):268-77). Briefly, carboxymethylated dextran biosensor chips (Series S Sensor Chip CMS, GE Healthcare) were activated with 1-ethyl-3-(3-dimethylaminopropyl)-carbodiimide hydrochloride (EDC) and N-hydroxysuccinimide (NHS) according to the supplier's instructions. MBP-MCL-1 was diluted in 1×PBS-P+ (GE Healthcare) and injected on the activated chip surface. Subsequently, a solution of 1 M ethanolamine-HCl (GE Healthcare) was injected to block unreacted groups, resulting in approximately 400-2500 response units (RU) of immobilized protein. A reference surface was generated by treatment with NHS-EDC and ethanolamine-HCl. […] For SPR binding-measurements, serial dilutions of compound (eight dilution steps, typically ranging from 0.2 nM up to 1 μM) were injected over immobilized protein. […] Compounds were injected for 60 s followed by a dissociation time of up to 1000 s.
The double-referenced sensorgrams were fit to a simple reversible Langmuir 1:1 reaction mechanism as implemented in the Biacore® T200 and S200 evaluation software (T200 evaluation software version 2.0 and S200 evaluation software version 1.0, GE Healthcare).

[1] = 72 h, HMC-1-8 cells, CellTiter-Glo, single determinations, read-out: IC50 Antiproli HMC-1-8
[2] = HMC-1-8 cells, 72 h, CellTiter-Glo; single determinations; read-out: IC50 Antiproli HMC-1-8

Sequence of MCL1 protein (Q07820 whole entry): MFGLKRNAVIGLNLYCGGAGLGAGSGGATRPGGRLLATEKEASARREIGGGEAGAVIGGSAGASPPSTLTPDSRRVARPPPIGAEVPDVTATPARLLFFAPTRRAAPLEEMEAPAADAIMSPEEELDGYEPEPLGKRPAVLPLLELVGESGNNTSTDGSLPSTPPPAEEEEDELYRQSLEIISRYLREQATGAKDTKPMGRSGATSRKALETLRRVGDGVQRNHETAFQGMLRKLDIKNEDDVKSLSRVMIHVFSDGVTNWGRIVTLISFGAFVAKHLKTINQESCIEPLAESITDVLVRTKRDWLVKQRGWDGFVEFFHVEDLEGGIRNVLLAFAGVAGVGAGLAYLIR
Sequence of MCL-1 (Q07820 whole entry K194A/K197A/R201A, looked up): as the sequence (Q07820 whole entry) above, with K194A, K197A, R201A counted along it

Row | IC50 (SUDHL10) [M] | IC50 (MCL1 protein) [nM] | Kd (MCL-1) [nM] | koff (MCL-1) [s⁻¹] | kon [1/M 1/s] (MCL-1) | kon (MCL-1) [M⁻¹ s⁻¹] | koff (MCL-1; read-out: koff) [s⁻¹] | SMILES | IC50 (HMC-1-8; [1]) [nM] | IC50 (HMC-1-8; [2]) [nM]
1 | 1.5e-06 |  |  |  |  |  |  | Cc1c2c(nn1C)COCCCCn1c(C(=O)O)c(CCCOc3cccc4c3CCCC4)c3ccc(F)c-2c31 (racemic) [Example 18, (rac)-13-fluoro-11,12-dimethyl-1-(3-((5,6,7,8-tetrahydronaphthalen-1-yl)oxy)propyl)-4,5,6,7,9,11-hexahydropyrazolo[4′,3′:9,10][1]oxa[6]azacycloundecino[8,7,6-hi]indole-2-carboxylic acid] |  | 
2 | 1.5e-06 |  |  |  |  |  |  | Cc1c2c(nn1C)COCCCCn1c(C(=O)O)c(CCCOc3cccc4c3CCC4)c3ccc(F)c-2c31 (racemic) [Example 19, (rac)-1-(3-((2,3-dihydro-1H-inden-4-yl)oxy)propyl)-13-fluoro-11,12-dimethyl-4,5,6,7,9,11-hexahydropyrazolo[4′,3′:9,10][1]oxa[6]azacycloundecino[8,7,6-hi]indole-2-carboxylic acid] |  | 
3 | 1.5e-06 |  |  |  |  |  |  | Cc1nn(C)c2c1-c1c(F)ccc3c(CCCOc4cccc5cc(F)ccc45)c(C(=O)O)n(c13)CCCCOC2 (racemic) [Example 32, (rac)-13-fluoro-1-(3-((6-fluoronaphthalen-1-yl)oxy)propyl)-10,12-dimethyl-4,5,6,7,9,10-hexahydropyrazolo[4′,3′:9,10][1]oxa[6]azacycloundecino[8,7,6-hi]indole-2-carboxylic acid] |  | 
4 |  | 1340 | 1.6 | 0.0072 | 4.4E6 1/M 1/s |  |  | CCc1c2c(nn1C)COCCCCn1c(C(=O)O)c(CCCOc3cccc4cc(F)ccc34)c3ccc(F)c-2c31 (single isomer, unassigned; enantiomer 1) [Example 22, 3-ethyl-4-fluoro-7-{3-[(6-fluoronaphthalen-1-yl)oxy]propyl}-2-methyl-2,10,11,12,13,15-hexahydropyrazolo[4′,3′:9,10][1,6]oxazacycloundecino[8,7,6-hi]indole-8-carboxylic acid-N-ethylethanamine salt (enantiomer 1)] | 2440 | 3530
5 |  | 424 | 2.9 |  |  | 3.3e+06 | 0.0097 | CCc1c2c(nn1C)COCCCCn1c(C(=O)O)c(CCCOc3cccc4cc(F)ccc34)c3ccc(F)c-2c31 (single isomer, unassigned; enantiomer 1) [Example 24, 3-ethyl-4-fluoro-7-{3-[(6-fluoronaphthalen-1-yl)oxy]propyl}-2-methyl-2,10,11,12,13,15-hexahydropyrazolo[4′,3′:9,10][1,6]oxazacycloundecino[8,7,6-hi]indole-8-carboxylic acid (enantiomer 1)] |  | 2500
6 |  | 2380 | 1.5 |  |  | 1.4e+07 | 0.021 | CCc1nn(C)c2c1-c1c(F)ccc3c(CCCOc4cccc5cc(F)ccc45)c(C(=O)O)n(c13)CCCCOC2 (single isomer, unassigned; enantiomer 1) [Example 39, 3-ethyl-4-fluoro-7-{3-[(6-fluoronaphthalen-1-yl)oxy]propyl}-1-methyl-1,10,11,12,13,15-hexahydropyrazolo[4′,3′:9,10][1,6]oxazacycloundecino[8,7,6-hi]indole-8-carboxylic acid-N-ethylethanamine salt (enantiomer 1)] | 3170 | 
